Results published in patent publication EP2042491A1, “Pyridazines as fungicides” (Bayer CropScience AG, priority 2007, dated 2009).

Test: not given
Conditions: Table 3; HPLC on reversed-phase C18, 40°C, 0.1% aqueous formic acid / acetonitrile, linear gradient 10-95% acetonitrile
With Cc1nnc(Cl)c(-c2c(F)cccc2Cl)c1Sc1ccc(Cl)cc1 [3-33, 3-Chlor-4-(2-chlor-6-fluorphenyl)-5-(4-chlorphenylsulfanyl)-6-methylpyridazin] the “logP^a)” value was 4,65.

Same assay, conditions: given in the running text of the preparation examples; method presumably as footnote a) of the tables
With CCOC(=O)/C(C)=N\N(Cc1ccccc1)C(=O)Cc1c(F)cccc1Cl [V-1, Ethyl (2Z)-2-{benzyl[(2-chlor-6-fluorphenyl)acetyl] hydrazono}propanoat] the logP was 3.87.

Test: physchem
Conditions: not given
In the case of COc1ccc(COc2c(C)nnc(Cl)c2-c2c(F)cccc2F)cc1 [2-42, 3-Chlor-4-(2,6-difluorphenyl)-5-(4-Methoxybenzyloxy)-6-methylpyridazin], the chromatographic logP is reported as 3.35. Compound Cc1nnc(Cl)c(-c2c(F)cccc2Cl)c1N1CCCC1C (stereo not shown) [1-97] has a chromatographic logP of 3.32. Compound Cc1nnc(Cl)c(-c2c(F)cccc2F)c1N1CCCC1C (stereo not shown) [1-64] has a chromatographic logP of 3.08. Work on Cc1nnc(Cl)c(-c2c(F)cccc2Cl)c1Sc1ccccc1F [3-40] yielded a chromatographic logP of 3.99. For Cc1nnc(Cl)c(-c2c(F)cccc2Cl)c1Oc1cc(Cl)cc(Cl)c1 [2-81], the chromatographic logP was 4.61. COCCOc1c(C)nnc(Cl)c1-c1c(F)cccc1Cl [2-84] showed a chromatographic logP of 2.6. Cc1nnc(Cl)c(-c2c(F)cccc2Cl)c1Oc1ccc(Oc2ccc(Cl)cc2)cc1 [2-82] showed a chromatographic logP of 5.03. Work on Cc1nnc(Cl)c(-c2c(F)cccc2F)c1N(C)CC(C)C [1-66] yielded a chromatographic logP of 3.65. Compound Cc1nnc(Cl)c(-c2c(F)cccc2F)c1N1CCC(C)CC1 [1-58, 3-Chlor-4-(2,6-difluorphenyl)-6-methyl-5-(4-methylpiperidin-1-yl)pyridazin] has a chromatographic logP of 3.87. In the case of Cc1nnc(Cl)c(-c2c(F)cccc2Cl)c1Oc1ccc(Cl)cc1 [2-60], the chromatographic logP is reported as 4.13. For CCC(C)Sc1c(C)nnc(Cl)c1-c1c(F)cccc1F (stereo not shown) [3-23], the chromatographic logP was 3.99. Work on Cc1nnc(Cl)c(-c2c(F)cccc2Cl)c1N1CCC2(C)CC2C1 (stereo not shown) [1-96] yielded a chromatographic logP of 4.25. In the case of Cc1nnc(Cl)c(-c2c(F)cccc2Cl)c1Nc1ccc(Cl)cc1 [1-99], the chromatographic logP is reported as 3.18. Work on Cc1nnc(Cl)c(-c2c(F)cccc2F)c1NC(C)C(C)C (racemic) [1-62] yielded a chromatographic logP of 2.99. For Cc1nnc(Cl)c(-c2c(F)cccc2F)c1NCC(C)C [1-48], the chromatographic logP was 2.64. COc1cccc(Oc2c(C)nnc(Cl)c2-c2c(F)cccc2Cl)c1 [2-73] gave a chromatographic logP of 3.56. With Cc1nnc(Cl)c(-c2c(F)cccc2Cl)c1Oc1ccccc1F [2-65] the chromatographic logP was 3.51. Compound Cc1nnc(Cl)c(-c2c(F)cccc2Cl)c1Oc1cccc(Cl)c1 [2-74] has a chromatographic logP of 4.03. Work on Cc1nnc(Cl)c(-c2c(F)cccc2F)c1N[C@H](C)C(C)C [1-46] yielded a chromatographic logP of 3.04. Work on Cc1nnc(Cl)c(-c2c(F)cccc2F)c1NCc1ccccc1 [1-63] yielded a chromatographic logP of 2.67. In the case of Cc1nnc(Cl)c(-c2c(F)cccc2Cl)c1Oc1cccc(N(C)C)c1 [2-78], the chromatographic logP is reported as 3.85. Cc1cccc(Sc2c(C)nnc(Cl)c2-c2c(F)cccc2Cl)c1 [3-38] gave a chromatographic logP of 4.41. Cc1nnc(Cl)c(-c2c(F)cccc2F)c1Sc1ccc(Cl)cc1 [3-20, 3-Chlor-4-(2,6-difluorphenyl)-5-(4-chlorphenylsulfanyl)-6-methylpyridazin] gave a chromatographic logP of 4.35. For Cc1nnc(Cl)c(-c2c(F)cccc2F)c1OCC(C)C [2-32], the chromatographic logP was 3.57. With Cc1nnc(Cl)c(-c2c(F)cccc2Cl)c1Oc1cc(Cl)ccc1Cl [2-80] the chromatographic logP was 4.27. In the case of COc1cccc(Sc2c(C)nnc(Cl)c2-c2c(F)cccc2Cl)c1 [3-43], the chromatographic logP is reported as 4.03. In the case of Cc1nnc(Cl)c(-c2c(F)cccc2Cl)c1Oc1ccc(Cl)cc1Cl [2-70], the chromatographic logP is reported as 4.46. For Cc1nnc(Cl)c(-c2c(F)cccc2Cl)c1N1CCCC1 [1-98], the chromatographic logP was 2.82. Compound Cc1nnc(Cl)c(-c2c(F)cccc2Cl)c1Oc1cccc(C(C)(C)C)c1 [2-71] has a chromatographic logP of 4.92. COCCOCCOc1c(C)nnc(Cl)c1-c1c(F)cccc1Cl [2-83] showed a chromatographic logP of 2.58. Cc1nnc(Cl)c(-c2c(F)cccc2F)c1SC(C)C [3-25] showed a chromatographic logP of 3.57. Cc1nnc(Cl)c(-c2c(F)cccc2F)c1Oc1ccc(Cl)cc1 [2-39] showed a chromatographic logP of 3.86. Cc1nnc(Cl)c(-c2c(F)cccc2F)c1Cl [VIII-2, 3,5-Dichlor-4-(2,6-difluorphenyl)-6-methylpyridazin] gave a chromatographic logP of 2.93. Work on Cc1nnc(Cl)c(-c2c(F)cccc2Cl)c1Oc1cccc(OC(F)(F)F)c1 [2-79] yielded a chromatographic logP of 4.32. Cc1nnc(Cl)c(-c2c(F)cccc2F)c1O [5-1, 3-Chlor-4-(2,6-difluorphenyl)-5-hydroxy-6-methylpyridazin] gave a chromatographic logP of 1.41. Work on Cc1nnc(Cl)c(-c2c(F)cccc2F)c1N1CCCC1 [1-65] yielded a chromatographic logP of 2.57. In the case of Cc1nn(Cc2ccccc2)c(=O)c(-c2c(F)cccc2Cl)c1O [VI-1, 2-Benzyl-4-(2-chlor-6-fluorphenyl)-5-hydroxy-6-methylpyridazin-3(2H)-on], the chromatographic logP is reported as 2.58. Cc1nnc(Cl)c(-c2c(F)cccc2F)c1N1CCOCC1 [1-59] showed a chromatographic logP of 2.19. Work on Cc1nnc(Cl)c(-c2c(F)cccc2F)c1OCC1CC1 [2-41] yielded a chromatographic logP of 3.1. Cc1nnc(Cl)c(-c2c(F)cccc2F)c1NCC(C)(C)C [1-49] showed a chromatographic logP of 3.06. Compound Cc1nnc(Cl)c(-c2c(F)cccc2F)c1[S+]([O-])c1ccc(Cl)cc1 (stereo not shown) [4-1, 3-Chlor-4-(2,6-difluorphenyl)-5-[(4-chlorphenyl)sulfinyl]-6-methylpyridazin] has a chromatographic logP of 3.47. Cc1nnc(Cl)c(-c2c(F)cccc2Cl)c1NC1CC1 [1-86] showed a chromatographic logP of 2.35. COc1nnc(C)c(N2CCC(C)CC2)c1-c1c(F)cccc1F [6-1, 4-(2,6-Difluorphenyl)-3-methoxy-6-methyl-5-(4-methylpiperidin-1-yl)pyridazin] showed a chromatographic logP of 3.39. For Cc1n[nH]c(=O)c(-c2c(F)cccc2Cl)c1O [VII-1, 4-(2-Chlor-6-fluorphenyl)-5-hydroxy-6-methylpyridazin-3(2H)-on], the chromatographic logP was 0.88. Compound Cc1nnc(Cl)c(-c2c(F)cccc2F)c1NCC1CC1 [1-52] has a chromatographic logP of 2.46. For Cc1nnc(Cl)c(-c2c(F)cccc2Cl)c1Sc1cccc(F)c1 [3-42], the chromatographic logP was 4.08. For Cc1nnc(Cl)c(-c2c(F)cccc2Cl)c1Cl [VIII-1, 3,5-Dichlor-4-(2-chlor-6-fluorphenyl)-6-methylpyridazin], the chromatographic logP was 3.24. In the case of Cc1nnc(Cl)c(-c2c(F)cccc2Cl)c1NC(C)C(C)C (racemic) [1-82], the chromatographic logP is reported as 3.21. Compound Cc1nnc(Cl)c(-c2c(F)cccc2F)c1OCC1(C)CC1 [2-43] has a chromatographic logP of 3.53. Cc1nnc(Cl)c(-c2c(F)cccc2Cl)c1Sc1ccc(Cl)cc1Cl [3-39] showed a chromatographic logP of 4.87. For Cc1nnc(Cl)c(-c2c(F)cccc2Cl)c1N1CC[Si](C)(C)CC1 [1-95], the chromatographic logP was 4.75. Work on Cc1cccc(Oc2c(C)nnc(Cl)c2-c2c(F)cccc2Cl)c1 [2-76] yielded a chromatographic logP of 3.99. Cc1nnc(Cl)c(-c2c(F)cccc2F)c1NC(C)C [1-51] showed a chromatographic logP of 2.36. Cc1nnc(Cl)c(-c2c(F)cccc2Cl)c1Sc1ccc(Cl)cc1 [3-33, 3-Chlor-4-(2-chlor-6-fluorphenyl)-5-(4-chlorphenylsulfanyl)-6-methylpyridazin] showed a chromatographic logP of 4.65. Work on Cc1nnc(Cl)c(-c2c(F)cccc2Cl)c1Oc1ccc(F)cc1 [2-67] yielded a chromatographic logP of 3.56. For COCC(C)Nc1c(C)nnc(Cl)c1-c1c(F)cccc1F (stereo not shown) [1-53], the chromatographic logP was 2.25. Compound COc1cc(Cl)cc(Oc2c(C)nnc(Cl)c2-c2c(F)cccc2Cl)c1 [2-72] has a chromatographic logP of 4.13. With Cc1nnc(Cl)c(-c2c(F)cccc2F)c1SC(C)C(C)C (stereo not shown) [3-21] the chromatographic logP was 4.37. For Cc1nnc(Cl)c(-c2c(F)cccc2Cl)c1Oc1ccc(Cl)c(Cl)c1 [2-75], the chromatographic logP was 4.41. Cc1nnc(Cl)c(-c2c(F)cccc2Cl)c1Sc1ccc(F)cc1 [3-44] showed a chromatographic logP of 4.03. Cc1nnc(Cl)c(-c2c(F)cccc2Cl)c1Oc1cccc(F)c1 [2-66] gave a chromatographic logP of 3.65. Cc1nnc(Br)c(-c2c(F)cccc2Cl)c1Oc1ccc(Cl)cc1 [2-62] gave a chromatographic logP of 4.12. Cc1nnc(Cl)c(-c2c(F)cccc2Cl)c1Oc1cccc(C#N)c1 [2-69] gave a chromatographic logP of 3.14. For NN(Cc1ccccc1)C(=O)Cc1c(F)cccc1Cl [III-1, N-Benzyl-2-(2-chlor-6-fluorphenyl)acetohydrazid], the chromatographic logP was 2.69. Cc1nnc(Cl)c(-c2c(F)cccc2Cl)c1Sc1cccc(C(F)(F)F)c1 [3-41] gave a chromatographic logP of 4.51. With Cc1nnc(Cl)c(-c2c(F)cccc2Cl)c1Sc1cccc(OC(F)(F)F)c1 [3-46] the chromatographic logP was 4.72. In the case of Cc1nnc(Cl)c(-c2c(F)cccc2Cl)c1Oc1ccc(C#N)cc1 [2-77], the chromatographic logP is reported as 3.18. Cc1nnc(Cl)c(-c2c(F)cccc2Cl)c1Oc1cccc(C(F)(F)F)c1 [2-68] gave a chromatographic logP of 4.13. Compound Cc1nnc(Cl)c(-c2c(F)cccc2Cl)c1OC1CCOCC1 [2-85] has a chromatographic logP of 2.68. C#CCOc1c(C)nnc(Cl)c1-c1c(F)cccc1F [2-36] showed a chromatographic logP of 2.5. Cc1nnc(Cl)c(-c2c(F)cccc2Cl)c1N1CCOCC1 [1-94] showed a chromatographic logP of 2.39.
